Laboratory results published in patent publication US8802597B2, “Herbicidal pyrimidines” (E I du Pont de Nemours and Company, priority 2003, dated 2014).
Like-named read-outs stand apart in the source and are kept apart here.

Assays:
Format in all cases: in vivo
[1] = tested on: velvetleaf (Abutilon theophrasti); experiment: Test A pre/postemergence; conditions: Abutilon theophrasti, 240 h, read-out: Plant response rating, Velvetleaf; for pest or weed control at 125 g/ha: 125 g ai/ha; for pest or weed control at 500 g/ha: 500 g ai/ha
Summary of the method: (§1)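 Seeds in loam–sand blend received preemergence directed soil spray and, concurrently, postemergence application (plants 2–10 cm, 1–2-leaf stage) of compound in non-phytotoxic solvent with surfactant. After about ten days in greenhouse, injury rated visually versus untreated controls, 0 (no effect) to 100 (complete control).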

[2] = tested on: redroot pigweed (Amaranthus retroflexus); experiment: Test A pre/postemergence; conditions: Amaranthus retroflexus, 240 h, read-out: Plant response rating, Pigweed; for pest or weed control at 125 g/ha: 125 g ai/ha; for pest or weed control at 500 g/ha: 500 g ai/ha
Summary of the method: as §1

[3] = tested on: giant foxtail (Setaria faberi); experiment: Test A pre/postemergence; conditions: Setaria faberi, 240 h, read-out: Plant response rating, Foxtail, Giant; for pest or weed control at 125 g/ha: 125 g ai/ha; for pest or weed control at 500 g/ha: 500 g ai/ha
Summary of the method: as §1

[4] = tested on: crabgrass (Digitaria sanguinalis); experiment: Test A pre/postemergence; conditions: Digitaria sanguinalis, 240 h, read-out: Plant response rating, Crabgrass; for pest or weed control at 125 g/ha: 125 g ai/ha; for pest or weed control at 500 g/ha: 500 g ai/ha
Summary of the method: as §1

[5] = tested on: barnyardgrass (Echinochloa crus-galli); experiment: Test A pre/postemergence; conditions: Echinochloa crus-galli, 240 h, read-out: Plant response rating, Barnyardgrass; for pest or weed control at 125 g/ha: 125 g ai/ha; for pest or weed control at 500 g/ha: 500 g ai/ha
Summary of the method: as §1

[6] = tested on: morningglory (Ipomoea spp.); experiment: Test A pre/postemergence; conditions: Ipomoea, 240 h, read-out: Plant response rating, Morningglory; for pest or weed control at 125 g/ha: 125 g ai/ha; for pest or weed control at 500 g/ha: 500 g ai/ha
Summary of the method: as §1

[7] = tested on: chickweed (Stellaria media); experiment: Test C postemergence; conditions: Stellaria media, post-emergence
Summary of the method: (§2)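 Test compounds, formulated in a non-phytotoxic solvent mix with surfactant, were applied to freshly planted seeds and, at the same time, to emerged plants at 1- to 4-leaf stage (2 to 18 cm). After 12 to 14 days in the greenhouse, response was scored visually versus controls, 0 = no effect, 100 = complete control.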

soybean (Glycine max) = experiment: Test C pre/postemergence; conditions: Glycine max; for plant injury at 16 g/ha: 16 g ai/ha; for plant injury at 31 g/ha: 31 g ai/ha; for plant injury at 62 g/ha: 62 g ai/ha
Summary of the method: as §2

corn (Zea mays) = experiment: Test C pre/postemergence; conditions: Zea mays; for Corn plant response rating (crop injury, 0 = no effect, 100 = complete kill) at 16 g/ha: 16 g ai/ha; for Corn plant response rating (crop injury, 0 = no effect, 100 = complete kill) at 31 g/ha: 31 g ai/ha; for Corn plant response rating (crop injury, 0 = no effect, 100 = complete kill) at 62 g/ha: 62 g ai/ha; for Corn plant response rating (crop injury, 0 = no effect, 100 = complete kill) at 125 g/ha: 125 g ai/ha
Summary of the method: as §2

[8] = tested on: goosegrass (Eleusine indica); experiment: Test C pre/postemergence; conditions: Eleusine indica; for pest or weed control at 16 g/ha: 16 g ai/ha; for pest or weed control at 31 g/ha: 31 g ai/ha; for pest or weed control at 62 g/ha: 62 g ai/ha; for pest or weed control at 125 g/ha: 125 g ai/ha
Summary of the method: as §2

[9] = tested on: lambsquarters (Chenopodium album); experiment: Test C pre/postemergence; conditions: Chenopodium album; for pest or weed control at 16 g/ha: 16 g ai/ha; for pest or weed control at 31 g/ha: 31 g ai/ha; for pest or weed control at 62 g/ha: 62 g ai/ha; for pest or weed control at 125 g/ha: 125 g ai/ha
Summary of the method: as §2

[10] = post-emergence, Postemergence, 0 to 100 scale (0 no effect, 100 complete control)
[11] = pre-emergence, Preemergence, 0 to 100 scale where 0 is no effect and 100 is complete control, approximately ten days
[12] = post-emergence, Postemergence, read-out: Plant response rating (scale of 0 to 100), Soybean
[13] = pre-emergence, Preemergence, scale 0 to 100, 0 no effect, 100 complete control, read-out: Plant response rating, Soybean
[14] = post-emergence, Postemergence, read-out: Plant response rating (scale of 0 to 100), Corn
[15] = pre-emergence, Preemergence, scale 0 to 100, 0 no effect, 100 complete control, read-out: Plant response rating, Corn
[16] = post-emergence, Postemergence, read-out: Plant response rating (scale of 0 to 100), Goosegrass
[17] = pre-emergence, Preemergence, scale 0 to 100, 0 no effect, 100 complete control, read-out: Plant response rating, Goosegrass
[18] = post-emergence, Postemergence, read-out: Plant response rating (scale of 0 to 100), Lambsquarters
[19] = pre-emergence, Preemergence, scale 0 to 100, 0 no effect, 100 complete control, read-out: Plant response rating, Lambsquarters

Nc1nc(-c2ccc(Cl)cc2)nc(C(=O)O)c1Cl [Compound 65, 6-amino-5-chloro-2-(4-chlorophenyl)-4-pyrimidinecarboxylic acid]
50%: pest or weed control at 125 g/ha [5, 11] | pest or weed control at 16 g/ha [8, 16] | pest or weed control at 31 g/ha [8, 16] | pest or weed control at 125 g/ha ([8]; pre-emergence, Preemergence, scale 0 to 100, read-out: Plant response rating, Goosegrass) | pest or weed control at 31 g/ha [9, 19]
85%: pest or weed control at 125 g/ha [3, 10] | pest or weed control at 125 g/ha [5, 10] | pest or weed control at 500 g/ha [5, 10] | plant injury at 16 g/ha (soybean (Glycine max); [13]) | pest or weed control at 16 g/ha [9, 18]
25%: pest or weed control at 125 g/ha [6, 11]
95%: pest or weed control at 125 g/ha [1, 10] | pest or weed control at 500 g/ha [1, 11] | pest or weed control at 500 g/ha [3, 10] | pest or weed control at 500 g/ha [6, 10] | plant injury at 31 g/ha (soybean (Glycine max); [13]) | plant injury at 62 g/ha (soybean (Glycine max); [13]) | pest or weed control at 125 g/ha ([9]; post-emergence, Postemergence, scale 0 to 100 (0 no effect, 100 complete control), read-out: Lambsquarters plant response rating)
80%: pest or weed control at 500 g/ha [3, 11] | pest or weed control at 500 g/ha [4, 10] | pest or weed control at 62 g/ha [9, 19]
100%: pest or weed control at 500 g/ha [1, 10] | pest or weed control at 125 g/ha [2, 10] | pest or weed control at 500 g/ha [2, 10] | pest or weed control at 125 g/ha [2, 11] | pest or weed control at 500 g/ha [2, 11] | plant injury at 16 g/ha (soybean (Glycine max); [12]) | plant injury at 31 g/ha (soybean (Glycine max); [12]) | plant injury at 62 g/ha (soybean (Glycine max); [12]) | plant injury at 125 g/ha (soybean (Glycine max); post-emergence, Postemergence, 125 g ai/ha, scale 0 to 100 (0 no effect, 100 complete control), read-out: Soybean plant response rating) | pest or weed control at 125 g/ha ([9]; pre-emergence, Preemergence, scale 0 to 100, read-out: Plant response rating, Lambsquarters)
5%: Corn plant response rating (crop injury, 0 = no effect, 100 = complete kill) at 16 g/ha (corn (Zea mays); [14])
40%: pest or weed control at 125 g/ha [3, 11]
70%: pest or weed control at 125 g/ha ([7]; 125 g ai/ha, scale 0 to 100 (0 no effect, 100 complete control), read-out: Chickweed plant response rating) | pest or weed control at 62 g/ha [8, 16] | pest or weed control at 125 g/ha ([8]; post-emergence, Postemergence, scale 0 to 100 (0 no effect, 100 complete control), read-out: Goosegrass plant response rating)
90%: pest or weed control at 500 g/ha [4, 11] | pest or weed control at 500 g/ha [5, 11] | pest or weed control at 500 g/ha [6, 11] | Corn plant response rating (crop injury, 0 = no effect, 100 = complete kill) at 31 g/ha (corn (Zea mays); [14]) | Corn plant response rating (crop injury, 0 = no effect, 100 = complete kill) at 62 g/ha (corn (Zea mays); [14]) | Corn plant response rating (crop injury, 0 = no effect, 100 = complete kill) at 125 g/ha (corn (Zea mays); post-emergence, Postemergence, scale 0 to 100 (0 no effect, 100 complete control), read-out: Corn plant response rating) | pest or weed control at 31 g/ha [9, 18] | pest or weed control at 62 g/ha [9, 18]
0%: Corn plant response rating (crop injury, 0 = no effect, 100 = complete kill) at 16 g/ha (corn (Zea mays); [15]) | Corn plant response rating (crop injury, 0 = no effect, 100 = complete kill) at 31 g/ha (corn (Zea mays); [15]) | Corn plant response rating (crop injury, 0 = no effect, 100 = complete kill) at 62 g/ha (corn (Zea mays); [15]) | pest or weed control at 16 g/ha [8, 17] | pest or weed control at 31 g/ha [8, 17] | pest or weed control at 62 g/ha [8, 17] | pest or weed control at 16 g/ha [9, 19]
55%: pest or weed control at 125 g/ha [1, 11] | pest or weed control at 125 g/ha [4, 10]
75%: pest or weed control at 125 g/ha [6, 10]
30%: Corn plant response rating (crop injury, 0 = no effect, 100 = complete kill) at 125 g/ha (corn (Zea mays); pre-emergence, Preemergence, scale 0 to 100, read-out: Plant response rating, Corn)
60%: pest or weed control at 125 g/ha [4, 11] | pest or weed control at 16 g/ha ([7]; 16 g ai/ha, read-out: Plant response rating (scale of 0 to 100), Chickweed) | pest or weed control at 31 g/ha ([7]; 31 g ai/ha, read-out: Plant response rating (scale of 0 to 100), Chickweed) | pest or weed control at 62 g/ha ([7]; 62 g ai/ha, read-out: Plant response rating (scale of 0 to 100), Chickweed)
